# Source: US20250352395A1, “ANTIMICROBIAL HEMOSTATIC DEVICES AND METHODS OF USE AND MAKING” (TELEFLEX LIFE SCIENCES II LLC, priority 2024, published 2025)
# Where a name gives a salt, the structure may show the parent alone.
# Assays:
# whole sheep blood = assay: Tilt Tube Clot Test; format: biochemical; conditions: Example 3
# Procedure: Beakers containing the mixtures were placed on a magnetic stirrer with a stirring rod placed therein. The stir plate was set to 300 RPM. Once the mixture appeared uniform, 130 μL of the mixture was pipetted into each of the appropriately labeled tubes. 20 samples per concentration were used. The samples were tested in a Tilt Tube Clot Test method described below. A water bath was prepared to 37±1° C., and a test tube holder was placed therein. One mL of whole sheep blood at 37° C. was pipetted into each test tube. 150 μL of CaCl2 at 37° C. was then pipetted into a tube and a timer was then started (time “0”). Tubes were capped and gently shaken twice to ensure that the CaCl2 was completely mixed with the blood, and then placed in the water bath. Tubes were tilted by 90° at 15 second intervals, beginning when the timer reads 45 seconds. The time to clot was determined by visual inspection and the clot time was recorded. A clot is defined as a solid mass that may or may not adhere to bottom of test tube. The average clot time for control blood and hemostatic agents was then calculated. […] Samples from Tests 11-13 and Test 10 from Example 2 were then further separated into 0.5″ by 0.5″ squares and added to test tubes. A Tilt Tube Clot Test, as described in Example 1, was performed.
# [1] = Appearance of coated gauze after drying at 80° C. for 24 hours; format: physicochemical; conditions: exposure to 80° C. for 24 hours
# Procedure: To coat the gauze, 20 mL of the coating mixture was poured into a flatbottom glass dish and then the gauze dipped into the mixture. The gauze was then lifted and allowed to drip. The coated gauze was placed on the wire rack and dried at 80° C. for 24 hrs. After drying was complete, samples were taken from the oven and remeasured for weight and moisture.
# After coating, there were noticeable white clumps on the gauze.
# [2] = Observation of salt dissolution in DI water during coating; format: physicochemical; conditions: Example 3 coating mixture, 0.39 g in 100 mL DI water
smiles,measurement,setting,value
"CC(=O)O.CC(=O)O.NC(=N\CCCCCC/N=C(N)/N=C(\N)Nc1ccc(Cl)cc1)/N=C(\N)Nc1ccc(Cl)cc1 [CHA, Chlorhexidine diacetate]",clot time,whole sheep blood; tested concentrations for CHA (300 and 50 μg/cm^2 targeted),≥ 150 s
same,appearance after drying,[1],"discolored, turning a yellow/orange"
"[H]/N=C(\N/C(=N/[H])NCCCCCCNC(=N)NC(=N)Nc1ccc(Cl)cc1)Nc1ccc(Cl)cc1 [CHD, Chlorhexidine dihydrochloride]",clot time,"whole sheep blood; estimated 300 μg/cm^2, at some individual data points",less than 150 seconds
same,dissolution in DI water,[2],did not dissolve
